Test results taken from US8129355B2, “Ketone ligands for modulating the expression of exogenous genes via an ecdysone receptor complex” (priority 2002, dated 2012).

Target: T1, Gal4 DBD/AaEcR (DEF) with VP16-βRXR-E (Aedes aegypti, UniProt P49880)
T1 construct: The wildtype D, E, and F domains from mosquito Aedes aegypti EcR (“AaEcR-DEF”); expressed in transfected cells; host or cells: 3T3 cells, transient transfection (Superfect)
Assay: cell-based
Assay type: cell-based
Conditions: for Fold Induction Average, AA_3T3 Assay (33 μM): single dose 33 μM, RLU ligand treated / RLU DMSO treated cells; for LC50 (half-maximal ligand concentration for reporter induction): average, dose response 33 μM to 0.01 μM, three-parameter logistic model, read-out: AA_3T3 LC50; for AA_3T3 Rel Max FI: maximum fold induction at any concentration relative to that of GS-E ligand
Method: 3T3 cells were trypsinized and plated at 2.5×10^3 cells/well on a 96-well plate. After incubation for 24 h at 37° C. under 5% CO2, cells were transfected with the Gal4 DBD/AaEcR (DEF) gene expression cassette and the reporter plasmid, pFRLuc, containing a 5XGAL4 response element and the firefly luciferase gene in serum free media using Superfect (Qiagen). After transfection for 4 h at 37° C., the cells were treated with ligand in serum media. […] Single dose testing was performed at 33 μM.

T1 sequence (P28704 286-520 A311G/G315S/G445S/I449V): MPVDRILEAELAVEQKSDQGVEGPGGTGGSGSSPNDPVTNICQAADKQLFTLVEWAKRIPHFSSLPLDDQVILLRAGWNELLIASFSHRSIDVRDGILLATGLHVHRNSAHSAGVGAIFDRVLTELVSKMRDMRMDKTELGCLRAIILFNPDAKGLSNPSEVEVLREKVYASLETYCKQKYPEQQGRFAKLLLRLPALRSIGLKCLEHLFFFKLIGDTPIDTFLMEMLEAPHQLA
T1 sequence (P49880 405-776): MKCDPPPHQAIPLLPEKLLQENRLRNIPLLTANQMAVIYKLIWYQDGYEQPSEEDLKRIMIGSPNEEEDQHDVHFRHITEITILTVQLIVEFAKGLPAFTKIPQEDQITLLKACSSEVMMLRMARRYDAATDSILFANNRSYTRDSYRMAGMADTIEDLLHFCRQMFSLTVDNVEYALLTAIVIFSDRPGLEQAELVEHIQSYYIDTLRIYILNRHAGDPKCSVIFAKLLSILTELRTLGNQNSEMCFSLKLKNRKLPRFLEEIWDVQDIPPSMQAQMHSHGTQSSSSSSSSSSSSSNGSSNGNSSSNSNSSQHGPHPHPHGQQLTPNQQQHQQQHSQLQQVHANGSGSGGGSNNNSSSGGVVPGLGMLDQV

| SMILES | Fold Induction Average, AA_3T3 Assay (33 μM) | LC50 (half-maximal ligand concentration for reporter induction) [µM] | AA_3T3 Rel Max FI | fold induction at 33 µM (NIH3T3, read-out: Fold Induction Average, AA_3T3 Assay (33 μM)) |
| --- | --- | --- | --- | --- |
| O=C(NC1(C(=O)c2ccccc2)CCCC1)c1ccccc1 [Example 139] | 2 |  |  |  |
| COc1cccc(C(=O)NC(C)(C)C(=O)c2cc(C)cc(C)c2)c1C [Example 75] | 161 | > 33 | 0.02 |  |
| CCOC(=O)C(=O)N1CCCC(NC(=O)c2cccc(OC)c2C)(C(=O)c2cc(C)cc(C)c2)C1 (racemic) [Example 154] | 2 |  |  |  |
| CCNC(=O)N1CCC(NC(=O)c2cccc(OC)c2C)(C(=O)c2cc(C)cc(C)c2)CC1 [Example 157] | 1 |  |  |  |
| COc1cccc(C(=O)NC2(C(=O)c3ccccc3)CCCC2)c1 [Example 141] | 1 |  |  |  |
| CCc1c(OC)cccc1C(=O)NC1(C(=O)c2cc(C)cc(C)c2)CCCCC1 [Example 143] | 1929 | 2.81 | 0.59 |  |
| COc1ccccc1C(=O)C(C)(C)NC(=O)c1cccc(OC)c1C [Example 74] | 4 |  |  |  |
| CCC(CC)(NC(=O)c1cccc(OC)c1C)C(=O)c1ccc(C)cc1 [Example 77] | 1 |  |  |  |
| CCC(CC)(NC(=O)c1cccc(OC)c1C)C(=O)c1ccccc1 [Example 78] | 14 | > 33 | 0.00 |  |
| COc1cccc(C(=O)NC2(C(=O)c3ccc(C)cc3)CCCC2)c1C [Example 79] | 12 | > 33 | 0.00 |  |
| CCc1c(OC)cccc1C(=O)NC1(C(=O)c2cc(C)cc(C)c2)CCCC1 [Example 144] | 2339 | 2.67 | 0.70 |  |
| COc1ccccc1C(=O)C(C)(NC(=O)c1cccc(OC)c1C)c1ccc(F)cc1 (centres unmarked) [Example 72] | 3 |  |  |  |
| COc1cccc(C(=O)NC2(C(=O)c3cc(C)cc(C)c3)CCN(C(C)=O)CC2)c1C [Example 149] |  |  |  | 2 |
| COc1cccc(C(=O)NC2(C(=O)c3cc(C)cc(C)c3)CCCCCC2)c1C [Example 71] | 1277 | 8.18 | 0.42 |  |
| COc1ccccc1C(=O)C1(NC(=O)c2cccc(OC)c2C)CCCCCC1 [Example 70] | 1878 | 3.21 | 0.48 |  |
